Data taken from the supplement of paper PMC11061612.

Columns and labels:
[1] = system: NCI-H1755 (Lung Adenocarcinoma); experiment: Bliss excess, mean over the matrix (fraction); higher = more synergy
Outline: (§1)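 Bliss excess equals the observed combination effect minus the expected value EA + EB − EA·EB, where EA and EB are the effects of each agent alone. Combination Emax is the second-highest inhibition within the matrix. Inhibition was scaled from CellTiter-Glo 2.0 luminescence, with 0 set by vehicle wells and 1 by blank wells, after 72 hours of two-drug dosing of cells plated in 1536-well plates.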

[2] = system: KYSE-70 (Esophageal Squamous Cell Carcinoma); experiment: as above
Outline: as §1

KYM-1 (Rhabdomyosarcoma) [3] = experiment: as above
Outline: as §1

[4] = system: CML-T1 (Chronic Myelogenous Leukemia); experiment: as above
Outline: as §1

[5] = system: EB-3 (Burkitt's Lymphoma); experiment: as above
Outline: as §1

[6] = system: PC-14 (Lung Adenocarcinoma); experiment: as above
Outline: as §1

[7] = system: COLO-684 (Endometrial Carcinoma); experiment: as above
Outline: as §1

[8] = system: NKM-1 (Acute Myeloid Leukemia); experiment: as above
Outline: as §1

CHL-1 (Melanoma) [9] = experiment: as above
Outline: as §1

[10] = system: NCI-H810 (Non-Small Cell Lung Carcinoma); experiment: as above
Outline: as §1

[11] = system: Becker (Low Grade Glioma); experiment: as above
Outline: as §1

[12] = system: LOUCY (T-Lymphoblastic Leukemia); experiment: as above
Outline: as §1

[13] = system: PANC-02-03 (Pancreatic Carcinoma); experiment: as above
Outline: as §1

[14] = system: SK-MM-2 (Plasma Cell Myeloma); experiment: as above
Outline: as §1

[15] = system: FLO-1 (Esophageal Adenocarcinoma); experiment: as above
Outline: as §1

ES-2 (Ovarian Carcinoma) [16] = experiment: as above
Outline: as §1

[17] = system: LAMA-84 (Chronic Myelogenous Leukemia); experiment: as above
Outline: as §1

[18] = system: SJRH30 (Rhabdomyosarcoma); experiment: as above
Outline: as §1

[19] = system: OV-90 (Ovarian Carcinoma); experiment: as above
Outline: as §1

HuO-3N1 (Osteosarcoma) [20] = experiment: as above
Outline: as §1

[21] = system: RMG-I (Ovarian Carcinoma); experiment: as above
Outline: as §1

[22] = system: SW684 (Other Solid Carcinomas); experiment: as above
Outline: as §1

[23] = system: HCC-44 (Lung Adenocarcinoma); experiment: as above
Outline: as §1

[24] = system: NCI-H1755 (Lung Adenocarcinoma); experiment: combination Emax (second highest fraction inhibited in the dose matrix, 72 h); higher = more inhibition; extreme values may be limits of the assay
Outline: as §1

[25] = system: KYSE-70 (Esophageal Squamous Cell Carcinoma); experiment: as above
Outline: as §1

KYM-1 (Rhabdomyosarcoma) [26] = experiment: as above
Outline: as §1

[27] = system: CML-T1 (Chronic Myelogenous Leukemia); experiment: as above
Outline: as §1

[28] = system: EB-3 (Burkitt's Lymphoma); experiment: as above
Outline: as §1

[29] = system: PC-14 (Lung Adenocarcinoma); experiment: as above
Outline: as §1

[30] = system: COLO-684 (Endometrial Carcinoma); experiment: as above
Outline: as §1

[31] = system: NKM-1 (Acute Myeloid Leukemia); experiment: as above
Outline: as §1

CHL-1 (Melanoma) [32] = experiment: as above
Outline: as §1

[33] = system: NCI-H810 (Non-Small Cell Lung Carcinoma); experiment: as above
Outline: as §1

[34] = system: Becker (Low Grade Glioma); experiment: as above
Outline: as §1

[35] = system: LOUCY (T-Lymphoblastic Leukemia); experiment: as above
Outline: as §1

[36] = system: PANC-02-03 (Pancreatic Carcinoma); experiment: as above
Outline: as §1

[37] = system: SK-MM-2 (Plasma Cell Myeloma); experiment: as above
Outline: as §1

[38] = system: FLO-1 (Esophageal Adenocarcinoma); experiment: as above
Outline: as §1

ES-2 (Ovarian Carcinoma) [39] = experiment: as above
Outline: as §1

[40] = system: LAMA-84 (Chronic Myelogenous Leukemia); experiment: as above
Outline: as §1

[41] = system: SJRH30 (Rhabdomyosarcoma); experiment: as above
Outline: as §1

[42] = system: OV-90 (Ovarian Carcinoma); experiment: as above
Outline: as §1

HuO-3N1 (Osteosarcoma) [43] = experiment: as above
Outline: as §1

[44] = system: RMG-I (Ovarian Carcinoma); experiment: as above
Outline: as §1

[45] = system: SW684 (Other Solid Carcinomas); experiment: as above
Outline: as §1

[46] = system: HCC-44 (Lung Adenocarcinoma); experiment: as above
Outline: as §1

CS(=O)(=O)CCNCc1ccc(-c2ccc3ncnc(Nc4ccc(OCc5cccc(F)c5)c(Cl)c4)c3c2)o1 [Lapatinib] + NC1(c2ccc(-c3nc4ccn5c(=O)[nH]nc5c4cc3-c3ccccc3)cc2)CCC1 [MK-2206] (first compound max 10 µM, 7x7, partner max 10 µM)
Bliss excess [1]: -0.0085
Bliss excess [2]: 0.0087
Bliss excess (KYM-1 (Rhabdomyosarcoma) [3]): 0.0255
Bliss excess [4]: -0.016
Bliss excess [5]: -0.0251
Bliss excess [6]: 0.0188
Bliss excess [7]: 0.0322
Bliss excess [8]: 0.0174
Bliss excess (CHL-1 (Melanoma) [9]): 0.0221
Bliss excess [10]: -0.0152
Bliss excess [11]: 0.0516
Bliss excess [12]: -0.0343
Bliss excess [13]: -0.0011
Bliss excess [14]: 0.0329
Bliss excess [15]: -0.0401
Bliss excess (ES-2 (Ovarian Carcinoma) [16]): -0.131
Bliss excess [17]: -0.046
Bliss excess [18]: 0.0103
Bliss excess [19]: -0.0225
Bliss excess (HuO-3N1 (Osteosarcoma) [20]): -0.0437
Bliss excess [21]: -0.0219
Bliss excess [22]: 0.0223
Bliss excess [23]: 0.005
combination Emax [24]: 0.88
combination Emax [25]: 0.613
combination Emax (KYM-1 (Rhabdomyosarcoma) [26]): 0.945
combination Emax [27]: 0.948
combination Emax [28]: 0.937
combination Emax [29]: 0.993
combination Emax [30]: 0.893
combination Emax [31]: 0.94
combination Emax (CHL-1 (Melanoma) [32]): 0.5
combination Emax [33]: 0.389
combination Emax [34]: 0.808
combination Emax [35]: 0.912
combination Emax [36]: 0.643
combination Emax [37]: 0.52
combination Emax [38]: 0.793
combination Emax (ES-2 (Ovarian Carcinoma) [39]): 0.936
combination Emax [40]: 0.642
combination Emax [41]: 0.914
combination Emax [42]: 0.623
combination Emax (HuO-3N1 (Osteosarcoma) [43]): 0.869
combination Emax [44]: 0.679
combination Emax [45]: 0.686
combination Emax [46]: 0.852

Cc1nc(-c2cn3c(n2)-c2ccc(-c4cnn(C(C)(C)C(N)=O)c4)cc2OCC3)n(C(C)C)n1 [Taselisib] + O=C(Nc1ccc2[nH]nc(-c3ccncc3)c2c1)[C@@H]1CCN(CC(=O)N2CCN(c3ccc(-c4ncccn4)cc3)CC2)C1 [SCH772984] (first compound max 10 µM, 7x7, partner max 5 µM)
Bliss excess [1]: 0.0655
Bliss excess [2]: 0.0674
Bliss excess (KYM-1 (Rhabdomyosarcoma) [3]): 0.0003
Bliss excess [4]: 0.0342
Bliss excess [5]: 0.0114
Bliss excess [6]: 0.133
Bliss excess [7]: -0.0183
Bliss excess [8]: 0.0911
Bliss excess (CHL-1 (Melanoma) [9]): 0.0652
Bliss excess [10]: -0.0601
Bliss excess [11]: 0.0868
Bliss excess [12]: 0.0209
Bliss excess [13]: 0.126
Bliss excess [14]: 0.0166
Bliss excess [15]: 0.115
Bliss excess [17]: 0.11
Bliss excess [19]: 0.0451
Bliss excess [21]: -0.0455
Bliss excess [22]: 0.0283
Bliss excess [23]: 0.0906
combination Emax [24]: 0.991
combination Emax [25]: 0.686
combination Emax (KYM-1 (Rhabdomyosarcoma) [26]): 0.671
combination Emax [27]: 0.493
combination Emax [28]: 0.493
combination Emax [29]: 0.973
combination Emax [30]: 0.63
combination Emax [31]: 1
combination Emax (CHL-1 (Melanoma) [32]): 0.575
combination Emax [33]: 0.104
combination Emax [34]: 0.757
combination Emax [35]: 0.627
combination Emax [36]: 0.906
combination Emax [37]: 0.349
combination Emax [38]: 0.737
combination Emax [40]: 0.999
combination Emax [42]: 0.827
combination Emax [44]: 0.599
combination Emax [45]: 0.823
combination Emax [46]: 0.983

CN(CCO)CC[C@H](CSc1ccccc1)Nc1ccc(S(=O)(=O)NC(=O)c2ccc(N3CCC([C@@H](O)c4ccccc4-c4ccc(Cl)cc4)CC3)cc2)cc1S(=O)(=O)C(F)(F)F [AZD4320] + CS(=O)(=O)CCNCc1ccc(-c2ccc3ncnc(Nc4ccc(OCc5cccc(F)c5)c(Cl)c4)c3c2)o1 [Lapatinib] (first compound max 1 µM, 7x7, partner max 10 µM)
Bliss excess [1]: 0.0015
Bliss excess [2]: -0.0022
Bliss excess (KYM-1 (Rhabdomyosarcoma) [3]): 0.021
Bliss excess [4]: -0.0077
Bliss excess [5]: -0.0721
Bliss excess [6]: 0.0043
Bliss excess [7]: -0.0766
Bliss excess [8]: 0.0418
Bliss excess (CHL-1 (Melanoma) [9]): 0.0412
Bliss excess [10]: -0.0665
Bliss excess [11]: 0.0497
Bliss excess [12]: 0.0586
Bliss excess [13]: 0.0082
Bliss excess [14]: 0.0729
Bliss excess [15]: 0.0298
Bliss excess [17]: 0.0411
Bliss excess [19]: -0.02
Bliss excess [21]: 0.0763
Bliss excess [22]: -0.0169
Bliss excess [23]: -0.0303
combination Emax [24]: 0.702
combination Emax [25]: 0.177
combination Emax (KYM-1 (Rhabdomyosarcoma) [26]): 0.395
combination Emax [27]: 1
combination Emax [28]: 0.605
combination Emax [29]: 0.964
combination Emax [30]: 0.34
combination Emax [31]: 1
combination Emax (CHL-1 (Melanoma) [32]): 0.718
combination Emax [33]: 0.518
combination Emax [34]: 0.912
combination Emax [35]: 1
combination Emax [36]: 0.875
combination Emax [37]: 1
combination Emax [38]: 0.842
combination Emax [40]: 0.989
combination Emax [42]: 0.849
combination Emax [44]: 0.972
combination Emax [45]: 0.823
combination Emax [46]: 0.472

CC1(C)CCC(CN2CCN(c3ccc(C(=O)NS(=O)(=O)c4ccc(NCC5CCOCC5)c([N+](=O)[O-])c4)c(Oc4cnc5[nH]ccc5c4)c3)CC2)=C(c2ccc(Cl)cc2)C1 [Venetoclax] + CS(=O)(=O)CCNCc1ccc(-c2ccc3ncnc(Nc4ccc(OCc5cccc(F)c5)c(Cl)c4)c3c2)o1 [Lapatinib] (first compound max 1 µM, 7x7, partner max 10 µM)
Bliss excess [1]: -0.031
Bliss excess [2]: -0.0418
Bliss excess (KYM-1 (Rhabdomyosarcoma) [3]): -0.0027
Bliss excess [4]: 0.0154
Bliss excess [5]: -0.0478
Bliss excess [6]: -0.013
Bliss excess [7]: -0.0236
Bliss excess [8]: 0.108
Bliss excess (CHL-1 (Melanoma) [9]): 0.0208
Bliss excess [10]: -0.065
Bliss excess [11]: -0.0179
Bliss excess [12]: 0.0911
Bliss excess [13]: -0.0113
Bliss excess [14]: 0.0104
Bliss excess [15]: -0.0279
Bliss excess [17]: -0.0046
Bliss excess [19]: -0.0522
Bliss excess [21]: 0.0483
Bliss excess [22]: -0.0757
Bliss excess [23]: -0.0326
combination Emax [24]: 0.262
combination Emax [25]: 0.145
combination Emax (KYM-1 (Rhabdomyosarcoma) [26]): 0.291
combination Emax [27]: 0.539
combination Emax [28]: 0.568
combination Emax [29]: 0.909
combination Emax [30]: 0.343
combination Emax [31]: 0.764
combination Emax (CHL-1 (Melanoma) [32]): 0.528
combination Emax [33]: 0.181
combination Emax [34]: 0.147
combination Emax [35]: 1
combination Emax [36]: 0.294
combination Emax [37]: 1
combination Emax [38]: 0.318
combination Emax [40]: 0.182
combination Emax [42]: 0.149
combination Emax [44]: 0.493
combination Emax [45]: 0.112
combination Emax [46]: 0.226
